In patent US20090099158A1, “TETRAHYDROISOQUINOLINE COMPOUNDS AS MODULATORS OF THE HISTAMINE H3 RECEPTOR” (priority 2007, published 2009):

Assays:
Rat H3 [1] = target: T1, Rat H3 (Rattus norvegicus, UniProt Q9QYN8); assay: Cyclic AMP Accumulation (rat H3 receptor); format: cell-based; design: expressed in transfected cells; host or cells: SK-N-MC sublines with reporter construct; conditions: SK-N-MC cells expressing a reporter construct and the rat H3 receptor; average; read-out: Rat pA2 (converted)
From the text: (§1) Sublines of SK-N-MC cells were created that expressed a reporter construct and either the human or rat H3 receptor. The pA2 values were obtained as described by Barbier et al. (2004). Data for compounds tested in these assays are presented in Table 3, as an average of the results obtained (NT=not tested).

[2] = target: T2, cloned human H3 receptors (Homo sapiens, UniProt Q9Y5N1); assay: H3 Receptor Binding (Human); conditions: cloned human H3 receptors stably expressed in SK-N-MC cells; average of the results obtained
T2 construct: expressed in transfected cells; host or cells: SK-N-MC cells
Description: Binding of compounds to the cloned human H3 receptors, stably expressed in SK-N-MC cells, was performed as described by Barbier, A. J. et al. (Br. J. Pharmacol. 2004, 143(5), 649-661). Data for compounds tested in this assay are presented in Table 1 as an average of the results obtained.

human H3 receptor = target: T3, human H3 receptor (Homo sapiens, UniProt Q9Y5N1); assay: Cyclic AMP Accumulation (human H3 receptor); format: cell-based; conditions: SK-N-MC cells expressing a reporter construct and the human H3 receptor; average; read-out: Human pA2 (converted)
T3 construct: expressed in transfected cells; host or cells: SK-N-MC sublines with reporter construct
From the text: as §1

Rat H3 [3] = target: T1, Rat H3; assay: H3 Receptor Binding (Rat); design: A rat brain without cerebellum (Zivic Laboratories Inc., Pittsburgh, Pa.) was homogenized; tissue Zivic Laboratories Inc; host or cells: rat brain without cerebellum (membranes); conditions: rat brain (without cerebellum) membranes; 0.8 nM N-[3H]-α-methylhistamine, 60 min at 25° C.; IC50 converted to Ki; average
Description: A rat brain without cerebellum (Zivic Laboratories Inc., Pittsburgh, Pa.) was homogenized in 50 mM Tris-HCl/5 mM EDTA and centrifuged at 1,000 rpm for 5 min. The supernatant was removed and recentrifuged at 15,000 rpm for 30 min. Pellets were rehomogenized in 50 mM Tris/5 mM EDTA (pH 7.4). Membranes were incubated with 0.8 nM N-[^3H]-α-methylhistamine plus/minus test compounds for 60 min at 25° C. and harvested by rapid filtration over GF/C glass fiber filters (pretreated with 0.3% polyethylenimine) followed by four washes with buffer. Nonspecific binding was defined in the presence of 100 μM histamine. Inhibitory concentration (responsible for 50% inhibition of maximal effect, IC50) values were determined by a single site curve-fitting program (GraphPad, San Diego, Calif.) and converted to Ki values based on a N-[^3H]-α-methylhistamine dissociation constant (Kd) of 0.8 nM. Data for compounds tested in this assay are presented in Table 2 as an average of the results obtained.

T1 sequence (Q9QYN8 whole entry): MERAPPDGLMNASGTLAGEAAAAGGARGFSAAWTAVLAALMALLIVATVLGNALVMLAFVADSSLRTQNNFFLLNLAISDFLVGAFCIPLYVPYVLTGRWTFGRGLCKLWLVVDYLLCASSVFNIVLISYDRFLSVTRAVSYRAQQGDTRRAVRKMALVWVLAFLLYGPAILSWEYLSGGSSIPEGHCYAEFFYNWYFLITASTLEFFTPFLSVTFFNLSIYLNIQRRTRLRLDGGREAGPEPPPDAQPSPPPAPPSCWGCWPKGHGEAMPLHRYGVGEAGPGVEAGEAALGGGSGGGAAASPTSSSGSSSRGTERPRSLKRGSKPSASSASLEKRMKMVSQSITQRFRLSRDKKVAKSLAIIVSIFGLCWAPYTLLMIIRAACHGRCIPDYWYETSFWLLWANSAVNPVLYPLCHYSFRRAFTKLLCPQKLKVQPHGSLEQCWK
T2 sequence (Q9Y5N1 whole entry): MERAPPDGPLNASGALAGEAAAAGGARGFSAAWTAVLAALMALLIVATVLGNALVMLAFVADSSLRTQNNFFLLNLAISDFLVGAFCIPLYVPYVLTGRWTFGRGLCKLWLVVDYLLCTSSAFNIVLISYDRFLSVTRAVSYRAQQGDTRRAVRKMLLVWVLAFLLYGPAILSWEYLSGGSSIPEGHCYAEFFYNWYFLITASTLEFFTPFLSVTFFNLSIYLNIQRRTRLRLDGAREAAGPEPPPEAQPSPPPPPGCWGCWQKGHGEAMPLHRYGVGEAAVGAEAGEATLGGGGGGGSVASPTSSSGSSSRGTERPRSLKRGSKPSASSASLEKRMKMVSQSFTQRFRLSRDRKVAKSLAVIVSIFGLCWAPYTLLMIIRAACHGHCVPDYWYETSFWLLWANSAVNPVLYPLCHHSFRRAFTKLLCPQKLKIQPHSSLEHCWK
T3 sequence (Q9Y5N1 whole entry): as above

| Kb (Rat H3 [1]) | Ki [2] | Kb (human H3 receptor) | Ki (Rat H3 [3]) | SMILES |
| --- | --- | --- | --- | --- |
| 18.2 nM | 4 nM | 2.82 nM | – | CCCC(=O)N1CCc2cc(C(=O)N3CCC[C@H]3CN3CCCC3)ccc2C1 [Example 46, (S)-1-[6-(2-Pyrrolidin-1-ylmethyl-pyrrolidine-1-carbonyl)-3,4-dihydro-1H-isoquinolin-2-yl]-butan-1-one] |
| 2.34 nM | 1 nM | 0.513 nM | – | O=C(c1ccc2c(c1)CCN(C(=O)c1ccccc1)C2)N1CCCN(C2CCC2)CC1 [Example 35, [6-(4-Cyclobutyl-[1,4]diazepane-1-carbonyl)-3,4-dihydro-1H-isoquinolin-2-yl]-phenyl-methanone] |
| 2.4 nM | 5 nM | 1.29 nM | 2 nM | O=C(c1ccc2c(c1)CCN(Cc1ccccc1)C2)N1CCN(C2CCC2)CC1 [Example 18, (2-Benzyl-1,2,3,4-tetrahydro-isoquinolin-6-yl)-(4-cyclobutyl-piperazin-1-yl)-methanone] |
| 2.88 nM | 1 nM | 0.355 nM | – | O=C(c1ccc2c(c1)CCN(C(=O)C1CCCCC1)C2)N1CCCN(C2CCC2)CC1 [Example 40, [6-(4-Cyclobutyl-[1,4]diazepane-1-carbonyl)-3,4-dihydro-1H-isoquinolin-2-yl]-cyclohexyl-methanone] |
| 15.1 nM | 5 nM | 8.51 nM | 135 nM | O=C(c1ccc2c(c1)CCN(C(=O)C1CCCC1)C2)N1CCN(C2CCC2)CC1 [Example 32, [6-(4-Cyclobutyl-piperazine-1-carbonyl)-3,4-dihydro-1H-isoquinolin-2-yl]-cyclopentyl-methanone] |
| – | 2 nM | 17.8 nM | – | O=C(c1ccc2c(c1)CN(Cc1ccccc1)CC2)N1CCN(C2CCC2)CC1 [Example 26, (2-Benzyl-1,2,3,4-tetrahydro-isoquinolin-7-yl)-(4-cyclobutyl-piperazin-1-yl)-methanone] |
| 15.8 nM | 3 nM | 1.55 nM | – | CC(C)N1CCCN(C(=O)c2ccc3c(c2)CCNC3)CC1 [Example 5, (4-Isopropyl-[1,4]diazepan-1-yl)-(1,2,3,4-tetrahydro-isoquinolin-6-yl)-methanone] |
| 13.8 nM | 8 nM | – | 123 nM | O=C(c1ccc2c(c1)CCN(C(=O)C1CCCCC1)C2)N1CCN(C2CCC2)CC1 [Example 33, [6-(4-Cyclobutyl-piperazine-1-carbonyl)-3,4-dihydro-1H-isoquinolin-2-yl]-cyclohexyl-methanone] |
| 30.9 nM | 5 nM | 10.5 nM | – | CC(C)N1CCN(C(=O)c2ccc3c(c2)CCN(Cc2ccc(Cl)cc2)C3)CC1 [Example 22, [2-(4-Chloro-benzyl)-1,2,3,4-tetrahydro-isoquinolin-6-yl]-(4-isoproplyl-piperazin-1-yl)-methanone] |
| 3.8 nM | 1 nM | 0.49 nM | – | O=C(c1ccc2c(c1)CN(C(=O)c1ccccc1)CC2)N1CCCN(C2CCC2)CC1 [Example 36, [7-(4-Cyclobutyl-[1,4]diazepane-1-carbonyl)-3,4-dihydro-1H-isoquinolin-2-yl]-phenyl-methanone] |
| 4.47 nM | 1 nM | 0.661 nM | – | CC(C)N1CCCN(C(=O)c2ccc3c(c2)CCN(Cc2ccccc2)C3)CC1 [Example 11, (2-Benzyl-1,2,3,4-tetrahydro-isoquinolin-6-yl)-(4-isopropyl-[1,4]diazepan-1-yl)-methanone] |
| 20.4 nM | 6 nM | 2.82 nM | – | CCC(=O)N1CCc2cc(C(=O)N3CCC[C@H]3CN3CCCC3)ccc2C1 [Example 45, (S)-1-[6-(2-Pyrrolidin-1-ylmethyl-pyrrolidine-1-carbonyl)-3,4-dihydro-1H-isoquinolin-2-yl]-propan-1-one] |
| 3.02 nM | 1 nM | 0.38 nM | – | O=C(c1ccc2c(c1)CCN(C(=O)C1CCCC1)C2)N1CCCN(C2CCC2)CC1 [Example 39, [6-(4-Cyclobutyl-[1,4]diazepane-1-carbonyl)-3,4-dihydro-1H-isoquinolin-2-yl]-cyclopentyl-methanone] |
| – | 3 nM | – | 30 nM | O=C(c1ccc2c(c1)CCN(C1CCC1)C2)N1CCN2CCCCC2C1 (centres unmarked) [Example 187, (2-Cyclobutyl-1,2,3,4-tetrahydro-isoquinolin-6-yl)-(octahydro-pyrido[1,2-a]pyrazin-2-yl)-methanone] |
| – | 4 nM | 1.05 nM | – | O=C(c1ccc2c(c1)CCN(Cc1ccsc1)C2)N1CCN(C2CCC2)CC1 [Example 15, (4-Cyclobutyl-piperazin-1-yl)-(2-thiophen-3-ylmethyl-1,2,3,4-tetrahydro-isoquinolin-6-yl)-methanone] |
